Laboratory results: publication PMC5614581, “Investigating cyclic nucleotide and cyclic dinucleotide binding to HCN channels by surface plasmon resonance” (PLoS ONE, 2017)
Residue numbers refer to the chain shown, from its start. Entries after “also recorded” stand apart in the source; their conditions may differ. Like-named read-outs stand apart in the source and are kept apart here. Each block holds one molecule with its values, some of them ahead of it.

Experiments:
[1] = target: isolated C-linker/CNBDs of HCN2 channels; details: read-out: binding affinity (SPR, ligand coupled to CM5 chip); cited from earlier work
[2] = target: isolated C-linker/CNBDs of HCN4 channels; details: read-out: binding affinity (SPR, ligand coupled to CM5 sensor); cited from earlier work
[3] = target: C-linker/CNBDs of HCN4 channels; details: read-out: binding affinity (FA), cited from earlier work
[4] = target: isolated C-linker/CNBDs of HCN2 channels; details: read-out: binding affinity (FA); cited from earlier work
[5] = tested on: full-length hHCN4 channels; details: cited from earlier work; for effect on cyclic nucleotide modulation of the channel: in the presence of cyclic nucleotides
[6] = target: T1, C-linker/CNBD of mouse HCN2 (mHCN2, residues 443–645) (Mus musculus, UniProt O88703); assay: SPR, immobilized mHCN2 C-linker/CNBD on NTA chip; details: for Kd: SPR
T1 sequence (O88703 443-645): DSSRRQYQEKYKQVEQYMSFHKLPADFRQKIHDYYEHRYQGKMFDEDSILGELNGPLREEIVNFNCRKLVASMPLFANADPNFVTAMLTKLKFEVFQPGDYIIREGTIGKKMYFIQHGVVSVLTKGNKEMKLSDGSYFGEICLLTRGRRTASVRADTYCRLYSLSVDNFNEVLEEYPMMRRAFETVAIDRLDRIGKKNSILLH
Description: (§1) SPR experiments were performed at 25 °C on a Biacore 4000 Instrument (GE Healthcare). C-linker/CNBDs of wild-type and L586W mutant mHCN2, and hHCN4 channels were immobilized on a NTA chip (GE Healthcare), as previously described [31, 32]. Immobilizations of the proteins were performed in HBS-P buffer (150 mM NaCl, 10 mM HEPES, 0.05% (v/v) surfactant P20, pH 7.4). First the NTA sensor surface was activated with a 1 min injection of 0.5 M NiCl2. The coupling of the Ni^2+-NTA chip surface groups with the 6-His-tagged proteins was then achieved by 2.5 min injections of the proteins at 200 nM concentrations to the chip surface. After the initial capturing, the proteins were covalently cross-linked via 20 s injections of NHS-EDC carboxyl-reactive cross-linkers to prevent protein loss from the chip surface with successive analyte and buffer injections. This was followed by 20 s injection of 1 M ethanolamine to block the remaining reactive sites. The proteins were captured at ~1000–3000 resonance units (RU; 1 RU = 1 pg of protein per mm^2). […] This spot was used as a reference surface to account for a non-specific binding to the chip surface. The binding to the reference surface was subtracted from the binding to the surfaces with immobilized proteins. In addition, the binding corresponding to blank injections (buffer only) was subtracted from the reference subtracted SPR data.
(§2) The binding experiments were performed in the running buffer (150 mM KCl, 10% Glycerol, 1 mM TCEP, 30 mM HEPES, pH 7.5). Analytes over the range of concentrations were injected in triplicates over the chip surface for 60 s at a flow rate of 30 μl /min, followed by buffer only injections. The regeneration of the surface between the analyte injections was not necessary, as the baseline returned to the pre-injection levels. In some experiments we observed a drift in the baseline. […] However, there was minimal residual binding between analyte injections, as indicated by essentially the same binding response for triplicate repeats of analyte injections at the same concentrations.
(§3) Each experiment was repeated on at least three different NTA chips.
(§4) Therefore, concentrations higher than 300 μM were excluded from the analysis. The data analysis and fitting of the plots was performed in Origin (Microcal Software, Inc). Error bars indicate the SEM. […] For each NTA chip an analyte was injected three times. Therefore, each experiment was repeated at least 3xn times. Statistical analysis was performed by using one-way ANOVA. P < 0.05 was considered statistically significant.

[7] = target: T2, C-linker/CNBD of human HCN4 (hHCN4, residues 521–723) (Homo sapiens, UniProt Q9Y3Q4); assay: SPR, immobilized hHCN4 C-linker/CNBD on NTA chip; details: for SPR binding response: analyte alone (no added cAMP), 300 μM or range up to 300 μM; for SPR binding response in the presence of cAMP: in the presence of 100 μM cAMP, analyte 300 μM or range up to 300 μM
T2 sequence (Q9Y3Q4 521-723): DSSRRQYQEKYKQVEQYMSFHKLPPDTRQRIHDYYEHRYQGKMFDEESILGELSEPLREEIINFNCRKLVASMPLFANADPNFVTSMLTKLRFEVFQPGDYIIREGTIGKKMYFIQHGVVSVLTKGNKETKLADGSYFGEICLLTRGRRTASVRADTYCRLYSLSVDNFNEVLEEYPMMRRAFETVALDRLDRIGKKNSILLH
Description: as §1, §2, §3, §4

[8] = target: T3, hHCN4 C-linker/CNBD (tetrameric) (Homo sapiens, UniProt Q9Y3Q4); assay: ITC, 80 μM (tetrameric) hHCN4 C-linker/CNBD after MBP tag cleavage; format: binding; details: 80 μM C-linker/CNBD
T3 construct: C-linker/CNBD of hHCN4 (residues 521–723); made in house; host or cells: E. coli BL21 (DE3)
T3 sequence (Q9Y3Q4 521-723): T2 sequence (Q9Y3Q4 521-723)
Description: (§5) For ITC experiments at low concentrations of the hHCN4 C-linker/CNBD the protein was concentrated to 6 μM and dialyzed in 150 mM KCl, 1 mM TCEP, 30 mM HEPES, pH 7.5 overnight at 4°C using a Slide-A-Lyzer dialysis cassette (ThermoFisher Scientific). For ITC experiments at high concentrations of the hHCN4 C-linker/CNBD the protein was concentrated to 80 μM and dialyzed in 100 mM KCl, 1 mM TCEP, 20 mM HEPES, pH 7.0 overnight at 4°C using a Slide-A-Lyzer cassette. The protein solutions were degassed prior to each experiment. ITC titrations were performed at 25°C using the ITC200 calorimeter (Malvern Instruments Inc. Westborough, MA). […] Data analysis was performed with NITPIC and SEDFAT [34, 35] using a single-site binding model for 6 μM C-linker/CNBDs and a two independent binding site model for 80 μM C-linker/CNBDs, as used by Chow et al. [36].

[9] = target: T4, hHCN4 C-linker/CNBD (monomeric) (Homo sapiens, UniProt Q9Y3Q4); assay: ITC, 6 μM (monomeric) 6-His tagged hHCN4 C-linker/CNBD; format: binding; details: 6 μM C-linker/CNBD
T4 construct: human HCN4 (hHCN4, residues 521–723); made in house; host or cells: E. coli BL21 (DE3)
T4 sequence (Q9Y3Q4 521-723): T2 sequence (Q9Y3Q4 521-723)
Description: as §5

[10] = target: T5, mHCN2-L586W C-linker/CNBD (Mus musculus, UniProt O88703, L586W); assay: SPR, immobilized mHCN2-L586W C-linker/CNBD on NTA chip; format: binding
T5 construct: mouse HCN2 (mHCN2, residues 443–645); made in house; host or cells: E. coli BL21 (DE3)
T5 sequence (O88703 443-645 L586W): T1 sequence (O88703 443-645) with L144W
Description: Error bars indicate the SEM. […] Statistical analysis was performed by using one-way ANOVA. P < 0.05 was considered statistically significant.

[11] = tested on: full-length HCN2 channels; details: read-out: affinity for full-length HCN2 channels, electrophysiology; cited from earlier work
[12] = target: mHCN2-L586W C-linker/CNBDs; details: read-out: binding affinity (tryptophan fluorescence); cited from earlier work
[13] = target: isolated C-linker/CNBDs of HCN2 channels; details: cGMP; read-out: binding affinity (ITC); cited from earlier work
[14] = analyte alone (no added cAMP), 300 μM
[15] = in the presence of 100 μM cAMP, analyte 300 μM

SMILES: NCCCCCCNc1nc2c(N)ncnc2n1[C@@H]1O[C@@H]2COP(=O)(O)O[C@H]2[C@H]1O [8-AHA-cAMP]
Kd [1]: 10 µM | Kd [2]: 11 µM

SMILES: Nc1ncnc2c1nc(SCCNC(=S)Nc1ccc(-c3c4ccc(=O)cc-4oc4cc(O)ccc34)c(C(=O)O)c1)n2C1OC2COP(=O)(O)OC2C1O (stereo not drawn) [8-Fluo-cAMP]
Kd ([3]; 8-Fluo-cAMP): 0.18 to 0.28 µM | Kd [4]: 0.3 to 0.7 µM

SMILES: Nc1nc2c(nc(SCCNC(=S)Nc3ccc4c(c3)C(=O)OC43c4ccc(O)cc4Oc4cc(O)ccc43)n2[C@@H]2O[C@@H]3COP(=O)(O)O[C@H]3[C@H]2O)c(=O)[nH]1 [8-Fluo-cGMP]
Kd ([3]; 8-Fluo-cGMP): 0.7 µM

SPR binding response [6, 14]: No increase in the binding response | SPR binding response ([6]; analyte alone (no added cAMP), 300 μM, listed as c-diAMP): did not detect any binding | SPR binding response in the presence of cAMP [6, 15]: No increase in the binding response | SPR binding response in the presence of cAMP ([6]; in the presence of 100 μM cAMP, analyte 300 μM, listed as c-diAMP): did not detect any binding | SPR binding response ([7]; listed as c-diAMP): did not detect any binding | SPR binding response in the presence of cAMP ([7]; listed as c-diAMP): did not detect any binding
SMILES: Nc1ncnc2c1ncn2[C@@H]1O[C@@H]2COP(=O)(O)O[C@H]3[C@@H](O)[C@H](n4cnc5c(N)ncnc54)O[C@@H]3COP(=O)(O)O[C@H]2[C@H]1O [c-di-AMP]
effect on cyclic nucleotide modulation of the channel [5]: antagonized the effect of cyclic nucleotides | SPR binding response [7]: No increase in the binding response; also recorded: did not show any cyclic dinucleotide binding | SPR binding response in the presence of cAMP [7]: No increase in the binding response; also recorded: did not show any cyclic dinucleotide binding

SPR binding response [6, 14]: did not detect any binding | SPR binding response in the presence of cAMP [6, 15]: did not detect any binding | SPR binding response ([7]; listed as c-diGMP): did not detect any binding | SPR binding response in the presence of cAMP ([7]; listed as c-diGMP): did not detect any binding | binding (ITC) ([8]; absence of cAMP): no binding | binding (ITC) in the presence of cAMP ([8]; presence of 1 mM cAMP): no binding | binding (ITC) ([9]; absence of cAMP, titrated with 300 μM ligand): no binding | binding (ITC) in the presence of cAMP ([9]; presence of 100 μM cAMP in ligand and protein solutions): no binding
SMILES: Nc1nc2c(ncn2[C@@H]2O[C@@H]3COP(=O)(O)O[C@H]4[C@@H](O)[C@H](n5cnc6c(=O)[nH]c(N)nc65)O[C@@H]4COP(=O)(O)O[C@H]3[C@H]2O)c(=O)[nH]1 [c-di-GMP]
effect on the cAMP-induced V1/2 shift ([5]; 100 μM c-di-GMP, 15 μM cAMP): completely abolishing the effect of 15 μM cAMP | IC50 ([5]; in the presence of 15 μM cAMP, read-out: apparent affinity for decreasing the cAMP-induced positive shift in V1/2): 1.8 µM | effect on cyclic nucleotide modulation of the channel [5]: antagonized the effect of cyclic nucleotides | SPR binding response [7]: No increase in the binding response; also recorded: did not show any cyclic dinucleotide binding | SPR binding response in the presence of cAMP [7]: No increase in the binding response; also recorded: did not show any cyclic dinucleotide binding

SMILES: Nc1nc2c(ncn2[C@@H]2O[C@@H]3COP(=O)(O)O[C@H]4[C@@H](O)[C@H](n5cnc6c(N)ncnc65)O[C@@H]4COP(=O)(O)O[C@@H]2[C@@H]3O)c(=O)[nH]1 [cGAMP]
effect on cyclic nucleotide modulation of the channel [5]: antagonized the effect of cyclic nucleotides | SPR binding response [6]: did not detect any binding | SPR binding response in the presence of cAMP [6]: did not detect any binding

SMILES: Nc1nc2c(ncn2[C@@H]2O[C@@H]3COP(=O)(O)O[C@H]3[C@H]2O)c(=O)[nH]1 [cGMP]
Kd ([10]; averaged over different NTA chips, for cGMP only a limit could be estimated, read-out: Kd (averaged binding affinity)): > 73.9 µM | Kd ([10]; single surface, Fig 2D, read-out: binding affinity (fit of representative dose response plot)): ≥ 70.1 µM | EC50 ([5]; cGMP, read-out: affinity for full-length hHCN4 channels, electrophysiology): 13.2 µM | Kd ([6]; read-out: Kd (averaged binding affinity), averaged over different NTA chips, 25 °C, Hill fit): 13.4 ± 2 µM | Kd ([6]; read-out: binding affinity (fit of representative dose response plot), single surface, Fig 1E): 12.3 ± 1.1 µM | affinity for hHCN4 relative to mHCN2 domains ([7]; SPR, P < 0.05 by ANOVA): about two-fold higher | SPR binding response [7]: robust response | Kd ([7]; read-out: Kd (averaged binding affinity), SPR, averaged over different NTA chips): 5.5 ± 0.9 µM | Kd ([7]; read-out: binding affinity (fit of representative dose response plot), SPR, single surface, Fig 3C): 5.6 ± 0.2 µM | EC50 [11]: ~6 µM | Kd [12]: 62 ± 23 µM | Kd [13]: 8.5 µM
